Data taken from publication PMC3356383, “Efficacious Intermittent Dosing of a Novel JAK2 Inhibitor in Mouse Models of Polycythemia Vera” (PLoS ONE, 2012).
Marks after values point to notes of the source that are not given here.

Experiments:
[1] = system: thymus cell populations; assay: Cell populations in thymus of normal mice; format: in vivo; conditions: 54 mpk
Protocol: (§1) Cells were stained in PBS, 0.5% BSA with antibodies for 15 min on ice. Stained cells were acquired on a 4-laser LSR-II (BD Biosciences) and data analyzed using FlowJo software (Treestar). Dead cells were labeled with the blue fluorescent LIVE/DEAD reactive dye (Invitrogen) and excluded from the analysis.
(§2) Monoclonal antibodies (anti-mouse): CD3, CD4, CD5, CD8, CD11b, CD19, CD21/35, CD23, CD25, CD43, CD44, CD49b, CD69, CD71, CD93, CD117, B220, GR-1, IgD, NK1.1, NKG2A/C/E, NKG2D, Ter119 were purchased from BD Biosciences; CD4, CD8, CD49b, CD62L, TCRβ, TCRγδ from eBioscience; GR-1 from Invitrogen; CD43 from Miltenyi Biotec. Goat anti-mouse IgM-FITC, (μ chain specific) from Jackson Immuno Research.
(§3) JAK2 and its family members JAK1 and JAK3 are known to signal downstream of cytokines that play essential roles in the development of lymphoid cell populations. To examine more thoroughly the effects of JAK2 inhibition on lymphoid cells, we analyzed wild-type (C57BL/6) mice treated with 54 mpk MRLB-11055 for 3 days, 6 days or up to 5 cycles of 3 days (“on”) followed by a 4 day holiday (“off”).
Supplementary file pone.0037207.s007.doc: Table S5 Effect of MRLB-11055 on Cell Populations in Thymus of Normal Mice. Cell counts measured by Advia. Cycles refer to 3 days of treatment followed by a 4 day holiday. *p<0.05 in Student T test when comparing vehicle 5 cycle with treatment 5 cycle and vehicle 2 cycle with treatment 2 cycle, resp. (DOC) Click here for additional data file.

[2] = system: spleen cell populations; assay: Cell populations in spleen of normal mice; format: in vivo; conditions: 54 mpk; for Spleen B-Cells B220+ / Spleen Cell Count / Spleen Myeloid Gr-1+ CD11b+ / Spleen NK-Cells NK1.1+ NKG2D+ / Spleen T-Cells CD4+ / Spleen T-Cells CD8+ / Spleen T-Cells Tregs CD25+CD127^lo / Spleen Weight / Spleen B-Cells MZ-B-cells CD21^hiCD23^lo: normal mice
Protocol: as §1, §2, §3
Supplementary file pone.0037207.s004.doc: Table S2 Effect of MRLB-11055 on Cell Populations in Spleen of Normal Mice. Cell counts measured by Advia. Cycles refer to 3 days of treatment followed by a 4 day holiday. *p<0.05 in Student T test when comparing vehicle 5 cycle with treatment 5 cycle and vehicle 2 cycle with treatment 2 cycle, resp. (DOC) Click here for additional data file.

[3] = molecular target: T1, TYK2 (JH1) (Homo sapiens, UniProt P29597); assay: TYK2 enzyme assay, HTRF detection; format: biochemical
T1 construct: TYK2 (JH1)
T1 sequence (P29597 897-1176 limits assumed, species assumed): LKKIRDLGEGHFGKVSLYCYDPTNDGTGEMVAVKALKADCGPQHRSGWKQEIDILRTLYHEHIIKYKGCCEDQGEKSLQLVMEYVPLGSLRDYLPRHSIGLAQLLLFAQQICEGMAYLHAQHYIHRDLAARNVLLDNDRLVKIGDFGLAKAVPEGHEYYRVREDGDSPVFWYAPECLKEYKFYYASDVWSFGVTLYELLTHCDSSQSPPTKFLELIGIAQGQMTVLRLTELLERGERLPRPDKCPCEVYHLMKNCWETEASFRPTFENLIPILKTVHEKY
Protocol: JAK1, JAK2, JAK3, and TYK2 kinase activity assays were performed as described previously using HTRF detection technology and the peptide substrate amino hexanoyl biotin-EQEDEPEGDYFEWLE-NH2. Each reaction was incubated between 60 and 80 min at room temperature. Final conditions were as follows: JAK1, 400 pM enzyme, Hepes pH 7.5, 10 mM MgCl2, 0.01% Brij-35, 1 mM EGTA, 0.1 mg/ml BSA), 2 mM DTT, 2 µM peptide substrate, 25 µM MgATP, 5% DMSO and the desired concentration of subject compound; JAK2, 25 pM enzyme (JH1, JH1–JH2^wt, JH1–JH2^V617F domains), 2 µM peptide substrate, 15 µM MgATP, 5 mM MgCl2, 100 mM NaCl, 2 mM DTT, 0.1 mg/ml BSA, 50 mM Tris (pH 7.4), 5% DMSO and the desired concentration of subject compound; JAK3, 250 pM enzyme, 50 mM Hepes pH 7.5, 10 mM MgCl2, 0.01% Brij-35, 1 mM EGTA, 0.1 mg/ml BSA), 2 mM DTT, 2.0 µM peptide substrate, 25 µM MgATP, 5% DMSO, and the desired concentration of subject compound; TYK2, 125 pM enzyme, 50 mM Hepes pH 7.5, 10 mM MgCl2, 0.01% Brij-35, 1 mM EGTA, 0.1 mg/ml BSA, 2 mM DTT, 2.0 µM peptide substrate, 15 µM MgATP, 5% DMSO and the desired concentration of subject compound.

[4] = 2 cycles (3 days treatment, 4 day holiday)
[5] = 5 cycles (3 days treatment, 4 day holiday)
[6] = 6 days of continuous treatment, wild-type C57BL/6 mice

Compound: NC(=O)c1cnc(N[C@H](C2CC2)C(F)(F)F)c2c1[nH]c1cc(-c3cnc(N)nc3)ccc12 [MRLB-11055]
- Thymus CD4+CD8+ [1, 4]: 91.3 ± 0.3%
- Thymus CD4-CD8- [1, 4]: 3.0 ± 0.8%
- Thymus Cell Count [1, 4]: 75.4 ± 26.5 x 10^6
- Thymus Single Positive CD4+ [1, 4]: 3.9 ± 0.8* %
- Thymus Single Positive CD8+ [1, 4]: 0.55 ± 0.03* %
- Thymus CD4+CD8+ [1, 5]: 90.7 ± 1.5%
- Thymus CD4-CD8- [1, 5]: 2.1 ± 0.6%
- Thymus Cell Count [1, 5]: 130.3 ± 27.1 x 10^6
- Thymus Single Positive CD4+ [1, 5]: 5.0 ± 1.1%
- Thymus Single Positive CD8+ [1, 5]: 1.4 ± 0.2* %
- Thymus CD4+CD8+ ([1]; 3 days): 85.6 ± 2.4* %
- Thymus CD4-CD8- ([1]; 3 days): 3.5 ± 0.6%
- Thymus Cell Count ([1]; 3 days): 37.3 ± 13.4* x 10^6
- Thymus Single Positive CD4+ ([1]; 3 days): 7.1 ± 1.3%
- Thymus Single Positive CD8+ ([1]; 3 days): 2.7 ± 0.8%
- Thymus CD4+CD8+ ([1]; 6 days): 87.9 ± 5.0%
- Thymus CD4-CD8- ([1]; 6 days): 2.4 ± 0.9%
- Thymus Cell Count ([1]; 6 days): 37.3 ± 12.1* x 10^6
- Thymus Single Positive CD4+ ([1]; 6 days): 5.8 ± 2.7%
- Thymus Single Positive CD8+ ([1]; 6 days): 2.7 ± 1.1%
- Decrease of splenic B220+ B-cells [2, 6]: 2 fold
- Decrease of splenic NK1.1+ cells [2, 6]: 25 fold
- Reduction of any of the splenic lymphocytes tested ([2]; intermittent dosing, 5 cycles of 3 days on and 4 days off): ≤ 2 fold
- Spleen B-Cells B220+ [2, 4]: 30.9 ± 2.2 X10^6
- Spleen Cell Count [2, 4]: 53.2 ± 1.2 X10^6
- Spleen Myeloid Gr-1+ CD11b+ [2, 4]: 0.67 ± 0.17 X10^6
- Spleen NK-Cells NK1.1+ NKG2D+ [2, 4]: 1.2 ± 0.2* X10^6
- Spleen T-Cells CD4+ [2, 4]: 6.5 ± 1.0* X10^6
- Spleen T-Cells CD8+ [2, 4]: 4.0 ± 0.4* X10^6
- Spleen T-Cells Tregs CD25+CD127^lo [2, 4]: 0.4 ± 0.1 * X10^6
- Spleen Weight [2, 4]: 76.3 ± 4.7 mg
- Spleen B-Cells B220+ [2, 5]: 31.2 ± 6.9 X10^6
- Spleen B-Cells MZ-B-cells CD21^hiCD23^lo [2, 5]: 1.7 ± 0.4* X10^6
- Spleen Cell Count [2, 5]: 59.4 ± 20.3 X10^6
- Spleen Myeloid Gr-1+ CD11b+ [2, 5]: 1.05 ± 0.76 X10^6
- Spleen NK-Cells NK1.1+ NKG2D+ [2, 5]: 0.9 ± 0.3* X10^6
- Spleen T-Cells CD4+ [2, 5]: 7.9 ± 1.9* X10^6
- Spleen T-Cells CD8+ [2, 5]: 4.9 ± 1.1* X10^6
- Spleen T-Cells Tregs CD25+CD127^lo [2, 5]: 0.6 ± 0.2* X10^6
- Spleen Weight [2, 5]: 92.5 ± 29.8 mg
- Spleen B-Cells B220+ ([2]; 3 days): 24.2 ± 6.2* X10^6
- Spleen B-Cells MZ-B-cells CD21^hiCD23^lo ([2]; 3 days): 0.2 ± 0.2* X10^6
- Spleen Cell Count ([2]; 3 days): 36.2 ± 8.7* X10^6
- Spleen Myeloid Gr-1+ CD11b+ ([2]; 3 days): 0.25 ± 0.13* X10^6
- Spleen NK-Cells NK1.1+ NKG2D+ ([2]; 3 days): 0.10 ± 0.03* X10^6
- Spleen T-Cells CD4+ ([2]; 3 days): 4.9 ± 0.8* X10^6
- Spleen T-Cells CD8+ ([2]; 3 days): 4.7 ± 1.1* X10^6
- Spleen T-Cells Tregs CD25+CD127^lo ([2]; 3 days): 0.3 ± 0.1* X10^6
- Spleen Weight ([2]; 3 days): 50.5 ± 4.4* mg
- Spleen B-Cells B220+ ([2]; 6 days): 16.9 ± 8.7* X10^6
- Spleen B-Cells MZ-B-cells CD21^hiCD23^lo ([2]; 6 days): 0.2 ± 0.2* X10^6
- Spleen Cell Count ([2]; 6 days): 26.5 ± 3.1* X10^6
- Spleen Myeloid Gr-1+ CD11b+ ([2]; 6 days): 0.22 ± 0.09* X10^6
- Spleen NK-Cells NK1.1+ NKG2D+ ([2]; 6 days): 0.07 ± 0.04* X10^6
- Spleen T-Cells CD4+ ([2]; 6 days): 4.1 ± 1.7* X10^6
- Spleen T-Cells CD8+ ([2]; 6 days): 3.2 ± 1.5* X10^6
- Spleen T-Cells Tregs CD25+CD127^lo ([2]; 6 days): 0.2 ± 0.1* X10^6
- Spleen Weight ([2]; 6 days): 45.8 ± 7.6* mg
- IC50 ([3]; HTRF, mean, n = 3, read-out: IC50, cell-free TYK2 (JH1)): 0.18 nM
- Selectivity for JAK2 over Tyk2 ([3]; cell-free assays): 2 fold
